According to patent US20240391954A1, “MC4R AGONIST PEPTIDES” (The Regents of the University of Michigan, priority 2021, published 2024):
Positions of bridges follow the written chain, without caps; N, C: chain ends. Non-standard residues stand in square brackets, D forms with d. Residues, ends and D or L forms follow the SMILES beside them. Nle = CCCC[C@H](N)C(=O)O

Tests used:
human MC1R = molecular target: T1, human MC1R (Homo sapiens, UniProt Q01726); test: split-luciferase cAMP sensor assay, agonist mode, hMC1R; assay type: cell-based; conditions: MC4R versus MC1R
T1 construct: expressed in transfected cells; host or cells: HEK-293 cells stably expressing hMC1R and the GScAMP22F cAMP sensor
T1 sequence (Q01726 whole entry): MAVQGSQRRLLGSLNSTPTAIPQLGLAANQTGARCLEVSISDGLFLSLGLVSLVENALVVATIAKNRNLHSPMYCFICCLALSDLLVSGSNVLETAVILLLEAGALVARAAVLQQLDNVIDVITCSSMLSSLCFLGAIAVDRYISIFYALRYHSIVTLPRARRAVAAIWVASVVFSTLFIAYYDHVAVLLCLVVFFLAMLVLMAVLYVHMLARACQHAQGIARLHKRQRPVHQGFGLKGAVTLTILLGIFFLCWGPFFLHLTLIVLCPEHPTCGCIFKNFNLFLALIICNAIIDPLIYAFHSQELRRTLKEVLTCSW
Method in brief: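 HEK-293 cells stably expressing hMC1R and the GScAMP22F split-luciferase cAMP sensor, preloaded 120 min at 37° C with D-luciferin in serum-free medium. Peptide responses were taken as peak luminescence over 2-13 min minus 2-min baseline, normalized to the α-MSH ECmax. EC50 was obtained from a four-parameter variable-slope fit.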

human MC3R = molecular target: T2, human MC3R (Homo sapiens, UniProt P41968); test: split-luciferase cAMP sensor assay, agonist mode (measurement window 1), hMC3R; assay type: cell-based
T2 construct: expressed in transfected cells; host or cells: HEK-293 cells stably expressing the GScAMP22F split-luciferase cAMP sensor (parent reporter line from Promega); MC3R clone generated in-house, G418 selection
T2 sequence (P41968 whole entry): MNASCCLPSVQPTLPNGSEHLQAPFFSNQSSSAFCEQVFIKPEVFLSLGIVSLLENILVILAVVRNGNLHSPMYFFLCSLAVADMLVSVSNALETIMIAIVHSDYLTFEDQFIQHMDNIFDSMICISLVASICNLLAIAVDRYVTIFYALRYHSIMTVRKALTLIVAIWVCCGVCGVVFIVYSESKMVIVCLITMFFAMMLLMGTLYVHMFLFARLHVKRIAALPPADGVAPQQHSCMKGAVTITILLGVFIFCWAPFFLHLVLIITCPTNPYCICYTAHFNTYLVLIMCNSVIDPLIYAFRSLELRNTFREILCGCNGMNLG
Method in brief: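 EC50 values come from a four-parameter variable-slope fit of luminescence in measurement window 1, capturing direct peptide effects on receptor-expressing cells with a cAMP22f luciferase sensor. Cells were preloaded with 4% D-luciferin, serum-free medium; 20 μM forskolin normalized for cell number and transducer efficiency.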

SMILES: CCCC[C@H](NC(=O)[C@H](CCCNC(=N)N)NC(C)=O)C(=O)N[C@H]1CSSC[C@@H](C(N)=O)NC(=O)[C@H](Cc2c[nH]c3ccccc23)NC(=O)[C@H](CCCNC(=N)N)NC(=O)[C@@H](Cc2ccccc2)NC(=O)[C@H](Cc2c[nH]cn2)NC1=O [CTX-1227, Arg-Nle-cyclo(Cys-His-D-Phe-Arg-Trp-Cys)] (Ac-R[Nle]CH[dF]RWC-NH2; disulfide 3-8 (inferred))
- MC4R selectivity vs MC1R (human MC1R): 0.92
- Emax (human MC3R; % maximal activation, agonist mode, read-out: MC3R cAMP % max activation): 96%
- EC50 (human MC3R; HEK-293 cells stably expressing hMC3R, agonist mode, read-out: MC3R cAMP EC50): 2.8 nM
- MC4R selectivity vs MC3R (human MC3R; MC4R versus MC3R): 11
